EP4464318A1, “TARGETING TGF-B-ACTIVATED KINASE-1 ACTIVATION IN THE TREATMENT OF NEUROINFLAMMATORY CONDITIONS” (Albert-Ludwigs-Universität Freiburg, priority 2023, dated 2024)

Legend:
[1] = test system: B-NHL (A20) bearing mice; assay: Survival of B-NHL (A20) bearing mice that received CD19 CAR T cells; type: in vivo
Method: (§1) Mice were treated with either takinib (Selleckchem, Germany) or vehicle after B-NHL or B-ALL transplantation. For the treatment, stocks of 3 mg/ml and 10 mg/ml of takinib were prepared in DMSO. The stocks were diluted in 0.5% carboxymethylcellulose solution (vehicle) and administered by intraperitoneal injection at a dosage of 0.15 mg/kg (takinib-FACS) and 0.5 mg/kg (survival and behaviour studies) per mouse per day from day 3 to day 9 following either B-NHL or B-ALL transplant, as described previously (13a). An equal volume of corresponding vehicles was administrated to the control groups daily from day 3 until day 9. For survival expriments, 0.5 mg/kg takinib or vehicle per mouse per day was administered intraperitonially from day 3 to day 11 following either B-NHL or B -ALL transplant, as described previously.
A20 Luc^+ GFP^+ immortalized murine lymphoma cell lines were used to induce B-NHL in mice. […] The mice were perfused with Ice cold PBS on day 10 and CNS was analysed. […]
(§2) For sample size in the murine survival experiments a power analysis was performed. A sample size of at least n=8 per group was determined by 80% power to reach a statistical significance of 0.05 in order to detect an effect size of at least 1.06. Differences in animal survival (Kaplan-Meier survival curves) were analyzed by Mantel Cox test. […]

[2] = test system: B-ALL (E2A-PBX1) bearing mice; assay: Survival of B-ALL (E2A-PBX1) bearing mice that received CD19 CAR T cells; type: in vivo
Method: as §1
(§3) The E2A-PBX1 cell line (15a) was provided by Dr. Federico Simonetta (Stanford, USA). […] The mice were perfused with ice cold PBS on day 10 and the CNS was analysed. […]
as §2

[3] = test system: B-ALL (E2A-PBX1) cells; assay: Viability of B-ALL (E2A-PBX1) cells, 24h; type: cell-based, murine; details: indicated concentrations of takinib, 24h (Fig. 28b)
[4] = test system: B-NHL (A20) cells; assay: Co-culture of B-NHL (A20) cells with NT or CD19 CAR T cells in vitro; type: cell-based; details: co-culture E:T 5:1, 10µM takinib or vehicle (Fig. 8c)
Method: A20 Luc^+ GFP^+ cells were stained with cell trace violet as per the manufacturer's instructions (Life Technologies). A20 Luc^+ GFP^+ cells and CD19 CAR T cells were incubated at ratios 1:1, 2:1, 5:1, and 10:1 for 16h at 37° C. Following incubation, cells were harvested and stained with live/dead far red fixable viability stain (Invitrogen).
(§4) B-NHL cells were labelled with cell trace violet (Invitrogen) as per the manufacturer's instructions. B-NHL cells and NT or CD19 CAR T cells were cultured with 0:1, 1:1, 1:5 and 1:10 ratios for 16-20h. Post-incubation cells were washed and stained for live dead zombie stain and specific lysis was calculated. For analyzing the expression of T cell markers, B-NHL and NT or CD19 CAR T cells were co-cultured at a ratio of 1:5 for 16-20h and treated with either 10µM of takinib or vehicle.

[5] = test system: B-ALL (E2A-PBX1) bearing mice treated with CD19 CAR T cells; assay: BBB leakage (FITC-dextran extravasation) in the CNS; type: in vivo
Method: as §1
(§5) The E2A-PBX1 cell line (15a) was provided by Dr. Federico Simonetta (Stanford, USA). C57BI/6 recipients were sublethally irradiated with 5.5 Gy and transplanted with 2×10^5 E2A-PBX1 cells intravenously. […] The mice were perfused with ice cold PBS on day 10 and the CNS was analysed. […]
(§6) Mice received PLX5622 (CSF1R inhibitor) chow or control chow (Research Diets) for 7 days prior to the experiment to achieve microglial depletion. […] The effectiveness of microglia depletion was determined by flow cytometry.

[6] = test system: B-ALL (E2A-PBX1) bearing mice treated with CD19 CAR T cells; assay: Grip strength test; type: in vivo
Method: as §1, §5
Mice received PLX5622 (CSF1R inhibitor) chow or control chow (Research Diets) for 7 days prior to the experiment to achieve microglial depletion. […] The effectiveness of microglia depletion was determined by flow cytometry. […]

[7] = test system: NK1.1+, CD45+, CD11b+ and CD3+ cells; assay: Immune cell counts in spleen and BM of B-NHL (A20) bearing mice that received CD19 CAR T cells; type: in vivo; details: takinib i.p. day 3 to day 9 vs vehicle (Fig. 24, 25)
Method: as §1
(§7) A20 Luc^+ GFP^+ immortalized murine lymphoma cell lines were used to induce B-NHL in mice. BALB/c recipients were sublethally irradiated with 4.5 Gy and transplanted with 1×10^6 A20 Luc^+ GFP^+ intravenously. 7 days later 10×10^6 syngeneic CD19 CAR T cells generated from BALB/c mice were administered. The mice were perfused with Ice cold PBS on day 10 and CNS was analysed. For survival experiments BALB/c recipients were sublethally irradiated with 4.5 Gy and transplanted intravenously with 1×10^5 A20 Luc^+ GFP^+ cells. […]

[8] = test system: B-NHL (A20) cells; assay: Viability of B-NHL (A20) cells, 24h; type: cell-based, murine; details: indicated concentrations of takinib, 24h (Fig. 28a)
[9] = test system: B-NHL (A20); assay: B-NHL (A20) lymphoma burden in vivo (bioluminescence, CD19+ cells in bone marrow); details: CAR19/takinib vs CAR19/vehicle treated mice (Fig. 8a,b)
Method: as §1, §7

[10] = test system: microglia (CD45lo CD11b+); assay: Flow cytometry of microglia from the CNS of B-NHL (A20) bearing mice treated with CD19 CAR T cells; type: in vivo
Method: as §1
A20 Luc^+ GFP^+ immortalized murine lymphoma cell lines were used to induce B-NHL in mice. BALB/c recipients were sublethally irradiated with 4.5 Gy and transplanted with 1×10^6 A20 Luc^+ GFP^+ intravenously. 7 days later 10×10^6 syngeneic CD19 CAR T cells generated from BALB/c mice were administered. The mice were perfused with Ice cold PBS on day 10 and CNS was analysed. For survival experiments BALB/c recipients were sublethally irradiated with 4.5 Gy and transplanted intravenously with 1×10^5 A20 Luc^+ GFP^+ cells. Seven days later 5×10^6 syngeneic CD19 CAR T cells from BALB/c mice were administered. Tumor burden was checked by bioluminescence imaging.
(§8) The CNS cells were isolated as described previously (20a) with modifications. Briefly, the mice were anesthetized and were perfused with 1X cold PBS. The CNS was isolated, homogenized and filtered through a 70 µm nylon filter. The homogenate was suspended in 37% isotonic Percoll solution and centrifuged at 800 × g for 30 min without a break in application. The myelin layer was removed from the top of 37% Percoll and the pelleted cells were washed with 1X PBS for further analysis.

[11] = test system: CD19 CAR T cells; assay: T cell markers and T cell viability in co-culture of B-NHL and NT/CD19 CAR T cells; type: cell-based
Method: as §4

[12] = target: T1, TAK1 (Homo sapiens, UniProt O43318); details: cited from earlier work
T1 sequence (O43318 1-606): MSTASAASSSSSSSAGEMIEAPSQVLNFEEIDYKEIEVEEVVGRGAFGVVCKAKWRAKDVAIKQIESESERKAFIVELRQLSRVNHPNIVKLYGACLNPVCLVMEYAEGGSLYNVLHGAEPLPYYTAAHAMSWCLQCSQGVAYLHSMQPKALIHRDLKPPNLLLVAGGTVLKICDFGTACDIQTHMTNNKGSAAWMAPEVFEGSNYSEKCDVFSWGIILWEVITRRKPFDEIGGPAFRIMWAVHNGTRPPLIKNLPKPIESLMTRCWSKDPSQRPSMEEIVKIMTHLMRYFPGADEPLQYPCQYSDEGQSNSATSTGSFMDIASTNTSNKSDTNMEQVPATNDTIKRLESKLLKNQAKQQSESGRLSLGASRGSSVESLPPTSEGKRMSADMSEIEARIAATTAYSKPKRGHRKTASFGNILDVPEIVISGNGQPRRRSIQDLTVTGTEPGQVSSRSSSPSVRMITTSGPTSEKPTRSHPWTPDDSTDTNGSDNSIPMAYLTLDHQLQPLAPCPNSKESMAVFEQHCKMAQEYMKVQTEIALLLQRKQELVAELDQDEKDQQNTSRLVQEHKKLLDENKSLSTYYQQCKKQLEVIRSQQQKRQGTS

[13] = test system: microglia (CD45lo CD11b+); assay: Microglial depletion: flow cytometry of CNS cells of B-ALL bearing mice; type: in vivo
Method: (§9) Mice received PLX5622 (CSF1R inhibitor) chow or control chow (Research Diets) for 7 days prior to the experiment to achieve microglial depletion. C57BI/6 mice were irradiated with 5.5 Gy and transplanted with 2×10^5 E2A-PBX1 cell lines. 10×10^6 CD19 CAR T were injected on day 7 and behaviour studies were performed on day 10. Mice were maintained on PLX5622 chow or control chow throughout the duration of the experiment. The effectiveness of microglia depletion was determined by flow cytometry.
as §8

[14] = test system: B-ALL (E2A-PBX1); assay: Tumor burden and myeloid cells in spleen and BM of B-ALL bearing mice on CSF1R inhibitor diet; type: in vivo
Method: as §9

[15] = test system: B-ALL (E2A-PBX1) bearing mice treated with CD19 CAR T cells; assay: Elevated plus maze test; type: in vivo; details: CAR19 T cells, CSF1R inhibitor diet vs control diet, from one week prior to tumor injection (Fig. 4)
Method: as §1, §3, §6
We performed the elevated plus maze test to evaluate the anxiety behaviour in mice as described previously with minor modifications (18a). […] We quantified the time they spent in the open arm in minutes. […]

[16] = test system: B-ALL (E2A-PBX1) bearing mice treated with CD19 CAR T cells; assay: Novel object recognition test; type: in vivo; details: CAR19 T cells, CSF1R inhibitor diet vs control diet, from one week prior to tumor injection (Fig. 4)
Method: as §1, with “For survival expriments, 0.5 mg/kg takinib or vehicle per mouse per day was administered intraperitonially from day 3 to day 11 following either B-NHL or B -ALL transplant, as described previously.” left out
as §3, §6
Novel object recognition test was performed as described previously with modifications (17a). […] The amount of time spent by the mouse exploring the novel object to the total exploration time is calculated as an index of recognition memory.

## C[C@]12C=CC(=O)C=C1CC[C@@H]1[C@@H]2[C@@H](O)C[C@@]2(C)[C@H]1CC[C@]2(O)C(=O)CO [prednisolone]
[1]; B-NHL (A20) bearing mice, prednisolone day 3 to day 9 (Fig. 8e)
  protective effect of CAR19 T cells against lymphoma growth: reduced
[2]; B-ALL (E2a-PBX1) bearing mice, prednisolone day 3 to day 9 (Fig. 8g)
  protective effect of CAR19 T cells against leukemia expansion: reduced

## CCCn1/c(=N/C(=O)c2cccc(C(N)=O)c2)[nH]c2ccccc21 [Takinib]
[3]
  cell death of B-ALL (E2A-PBX1) cells: dose-dependent cell death
[1]; CAR19/takinib vs CAR19/vehicle treated B-NHL bearing mice, 0.5 mg/kg i.p. (Fig. 8d)
  survival: survived longer
[4]
  cytotoxicity against B-NHL (A20) in vitro: increased cytotoxicity
[5]; B-ALL (E2A-PBX1) bearing mice after CAR19 T cell transfer, takinib vs vehicle (Fig. 6m, 26a)
  BBB leakage in the cortex: trend towards a lower BBB leakage
[6]; CAR19 T cells + takinib vs vehicle (Fig. 6l)
  grip strength: no difference
[7]
  myeloid cell, T cell or NK cell counts in the periphery: did not reduce
[2]; CAR19/takinib vs CAR19/vehicle, E2a-PBX1 model, 0.5 mg/kg i.p. (Fig. 8f)
  survival: increased
[8]
  cell death of B-NHL (A20) cells: dose-dependent cell death
[9]
  B-NHL (A20) lymphoma burden: decreased
[10]; takinib 0.15 mg/kg per mouse per day i.p. day 3 to day 9 vs vehicle (Fig. 6b,c)
  expression of TNF in microglia: reduced expression
[10]; takinib 0.15 mg/kg per mouse per day i.p. day 3 to day 9 vs vehicle (Fig. 6f,g)
  p38 phosphorylation in microglia: reduced
[10]; takinib 0.15 mg/kg per mouse per day i.p. day 3 to day 9 vs vehicle (Fig. 6d,e)
  expression of GM-CSF in microglia: reduced expression
[10]; takinib 0.5 mg/kg per mouse per day i.p. day 3 to day 9 vs vehicle (Fig. 6h,i)
  p70s6K total protein in microglia: reduced
[11]; CD3+ T cells, co-culture 1:5, 10µM takinib or vehicle (Fig. 29a-g)
  markers of cytotoxicity including perforin, CD107a, IFN-y, and TNF: remained unaffected
[11]; co-culture with B-NHL (A20), 10µM takinib or vehicle (Fig. 29h)
  viability of CAR19 or NT T cells: remained unaffected

## CCCn1c(NC(=O)c2cccc(C(N)=O)c2)nc2ccc(CN3CCCCC3)cc21 [HS-276]
[12]
  IC50: 2.3 nM
  Ki: 2.5 nM

## COCCN1CCN(Cc2ccc(-c3n[nH]c4c3C(=O)c3c(NC(=O)NN5CCOCC5)cccc3-4)cc2)CC1 [RGB-286638 free base]
[12]
  IC50: 5 nM

## COc1ncc(F)cc1CNc1ccc(Cc2c[nH]c3ncc(C)cc23)c(F)n1 [PLX5622]
[13]; PLX5622 diet day -7 to day 10 vs control (Fig. 21b-d)
  microglia numbers: declined
[13]; PLX5622 diet vs control diet (Fig. 21e-g)
  CD45hi, Ly6G+ and Ly6C+ myeloid cells infiltrating the CNS: no significant changes
[5]; CAR19 T cell-treated mice, CSF1R inhibitor (PLX5622) diet vs control diet (Fig. 23)
  BBB leakage: did not reduce
[6]; CAR19 T cells, CSF1R inhibitor diet vs control diet (Fig. 4)
  grip strength: no difference
[14]; CSF1R inhibitor diet vs control diet (Fig. 22c,d)
  Ly6C+ and F4/80+ myeloid cells in the spleen: no impact
[14]; CSF1R inhibitor prior to CAR19 T cell transfer vs vehicle-treated mice (Fig. 22a,b)
  lymphoma burden in spleen and BM: did not reduce
[15]
  neurocognitive deficits, elevated plus maze test: improved neurocognitive deficits
[16]
  neurocognitive deficits, novel object recognition test: improved neurocognitive deficits
